Source: PubChem BioAssay AID256 (DTP/NCI, 2004)
Inconclusive results and toxic doses are left out. Rule for the calls: active = survival T/C of 150% or more; inactive = T/C below 125% in these data.

Tested on: CD2F1 mice, L1210 leukemia ip, survival T/C
Assay: NCI In Vivo Anticancer Drug Screen. Data for tumor model L1210 Leukemia (intraperitoneal) in CD2F1 (CDF1) mice
Conditions: endpoint: mean survival time, higher = longer survival
Procedure, shortened: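 Each value reflects a quotient of treated over vehicle control outcomes in mice with a transplanted tumor.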

[1] = dose: 100.0 mg/kg/injection, schedule: Q01DX001 (ip), vehicle: saline
[2] = dose: 200.0 mg/kg/injection, schedule: Q01DX001 (ip), vehicle: saline
[3] = dose: 400.0 mg/kg/injection, schedule: Q01DX001 (ip), vehicle: saline
[4] = dose: 25.0 mg/kg/injection, schedule: Q04DX002 (ip), vehicle: saline with Tween-80
[5] = dose: 100.0 mg/kg/injection, schedule: Q01DX009 (ip), vehicle: saline
[6] = dose: 200.0 mg/kg/injection, schedule: Q01DX009 (ip), vehicle: saline
[7] = dose: 400.0 mg/kg/injection, schedule: Q01DX009 (ip), vehicle: saline
[8] = dose: 100.0 mg/kg/injection, schedule: Q04DX003 (ip), vehicle: saline with Tween-80
[9] = dose: 200.0 mg/kg/injection, schedule: Q04DX003 (ip), vehicle: saline with Tween-80
[10] = dose: 400.0 mg/kg/injection, schedule: Q04DX003 (ip), vehicle: saline with Tween-80
[11] = dose: 100.0 mg/kg/injection, schedule: Q04DX003 (ip), vehicle: Klucel (hydroxypropylcellulose) (HPC)
[12] = dose: 200.0 mg/kg/injection, schedule: Q04DX003 (ip), vehicle: Klucel (hydroxypropylcellulose) (HPC)
[13] = dose: 50.0 mg/kg/injection, schedule: Q01DX009 (ip), vehicle: saline with Tween-80
[14] = dose: 100.0 mg/kg/injection, schedule: Q01DX009 (ip), vehicle: saline with Tween-80
[15] = dose: 200.0 mg/kg/injection, schedule: Q01DX009 (ip), vehicle: saline with Tween-80
[16] = dose: 100.0 mg/kg/injection, schedule: Q04DX003 (ip), vehicle: saline
[17] = dose: 200.0 mg/kg/injection, schedule: Q04DX003 (ip), vehicle: saline
[18] = dose: 400.0 mg/kg/injection, schedule: Q04DX003 (ip), vehicle: saline

Measured: T/C

c1ccc(C(c2ccccc2)[P+](c2ccccc2)(c2ccccc2)c2ccccc2)cc1
inactive: dose: 375.0 micrograms/kg/injection, schedule: Q01DX001 (ip), vehicle: gum acacia 92 % of control | dose: 375.0 micrograms/kg/injection, schedule: Q01DX009 (ip), vehicle: gum acacia 106 % of control | dose: 375.0 micrograms/kg/injection, schedule: Q04DX003 (ip), vehicle: gum acacia 95 % of control | dose: 750.0 micrograms/kg/injection, schedule: Q01DX001 (ip), vehicle: gum acacia 103 % of control | dose: 750.0 micrograms/kg/injection, schedule: Q01DX009 (ip), vehicle: gum acacia 101 % of control | dose: 750.0 micrograms/kg/injection, schedule: Q04DX003 (ip), vehicle: gum acacia 101 % of control | dose: 1500.0 micrograms/kg/injection, schedule: Q01DX001 (ip), vehicle: gum acacia 101 % of control | dose: 1500.0 micrograms/kg/injection, schedule: Q01DX009 (ip), vehicle: gum acacia 108 % of control | dose: 1500.0 micrograms/kg/injection, schedule: Q04DX003 (ip), vehicle: gum acacia 106 % of control | dose: 3000.0 micrograms/kg/injection, schedule: Q01DX001 (ip), vehicle: gum acacia 98 % of control | dose: 3000.0 micrograms/kg/injection, schedule: Q01DX009 (ip), vehicle: gum acacia 112 % of control | dose: 3000.0 micrograms/kg/injection, schedule: Q04DX003 (ip), vehicle: gum acacia 108 % of control | dose: 6000.0 micrograms/kg/injection, schedule: Q01DX001 (ip), vehicle: gum acacia 112 % of control | dose: 6000.0 micrograms/kg/injection, schedule: Q01DX009 (ip), vehicle: gum acacia 92 % of control | dose: 6000.0 micrograms/kg/injection, schedule: Q04DX003 (ip), vehicle: gum acacia 114 % of control

Cn1c(=O)[nH]c2c(c1=O)CCO2
inactive: [1] 103 % of control | [2] 97 % of control | [3] 100 % of control

CCOC(=O)c1ccc(N/C(C)=C/C(=O)OC)cc1
inactive: dose: 75.0 mg/kg/injection, schedule: Q04DX003 (ip), vehicle: saline 94 % of control | dose: 150.0 mg/kg/injection, schedule: Q04DX003 (ip), vehicle: saline 91 % of control

[I][Pt][I].c1ccc([PH+](c2ccccc2)c2ccccc2)cc1.c1ccc([PH+](c2ccccc2)c2ccccc2)cc1
inactive: dose: 6.25 mg/kg/injection, schedule: Q04DX002 (ip), vehicle: saline with Tween-80 104 % of control | dose: 12.5 mg/kg/injection, schedule: Q04DX002 (ip), vehicle: saline with Tween-80 93 % of control | [4] 96 % of control | dose: 100.0 mg/kg/injection, schedule: Q04DX002 (ip), vehicle: saline with Tween-80 87 % of control | dose: 400.0 mg/kg/injection, schedule: Q04DX002 (ip), vehicle: saline with Tween-80 91 % of control

Cc1ncc(CO)c(CO)c1O
inactive: [5] 100 % of control | [6] 94 % of control | [7] 95 % of control

S=C(NCCc1ccccc1)Nc1ccccc1
inactive: [8] 97 % of control | [9] 95 % of control | [10] 95 % of control

O=C(c1ccccc1)C1(O)CCCCC1
inactive: dose: 50.0 mg/kg/injection, schedule: Q01DX009 (ip), vehicle: saline sonified 97 % of control | dose: 100.0 mg/kg/injection, schedule: Q01DX009 (ip), vehicle: saline sonified 105 % of control | dose: 200.0 mg/kg/injection, schedule: Q01DX009 (ip), vehicle: saline sonified 97 % of control

N#CCN1CCc2ccccc2C1
inactive: [11] 94 % of control | [12] 94 % of control

c1ccc2c(c1)C1c3ccccc3C2c2ccccc21
inactive: [8] 95 % of control | [9] 100 % of control | [10] 94 % of control

CC(=O)OCC1OC(OC(C)=O)C(NC(=O)Nc2cccc(N)c2)C(OC(C)=O)C1OC(C)=O (stereo not given)
inactive: dose: 5.0 mg/kg/injection, schedule: Q04DX003 (ip), vehicle: water 102 % of control | dose: 10.0 mg/kg/injection, schedule: Q04DX003 (ip), vehicle: water 96 % of control | dose: 20.0 mg/kg/injection, schedule: Q04DX003 (ip), vehicle: water 96 % of control | dose: 40.0 mg/kg/injection, schedule: Q04DX003 (ip), vehicle: water 96 % of control | dose: 80.0 mg/kg/injection, schedule: Q04DX003 (ip), vehicle: water 98 % of control

CCOC(=O)C(Cc1ccccc1OC)P(=O)(OCC)OCC (stereo not given)
inactive: dose: 75.0 mg/kg/injection, schedule: Q01DX001 (ip), vehicle: saline 100 % of control | dose: 150.0 mg/kg/injection, schedule: Q01DX001 (ip), vehicle: saline 94 % of control | dose: 300.0 mg/kg/injection, schedule: Q01DX001 (ip), vehicle: saline 96 % of control

SCCS
inactive: [13] 105 % of control | [14] 105 % of control | [15] 94 % of control | dose: 200.0 mg/kg/injection, schedule: Q04DX002 (ip), vehicle: saline with Tween-80 91 % of control

CS(=O)(=O)c1nccc2ccccc12
inactive: [16] 90 % of control | [17] 88 % of control | [18] 95 % of control

CC(C)OC(=S)S
inactive: [5] 101 % of control | [16] 100 % of control | [6] 102 % of control | [17] 97 % of control | [7] 107 % of control | [18] 88 % of control

O=C(CNC(=O)Nc1cccc([N+](=O)[O-])c1)N/N=C/c1c(O)ccc2ccccc12
inactive: [13] 88 % of control | [14] 92 % of control | [15] 95 % of control

COc1ccc(-c2nc3c(N)nc(N)nc3nc2N)cc1OC
inactive: dose: 12.5 mg/kg/injection, schedule: Q01DX009 (ip), vehicle: water 105 % of control | dose: 25.0 mg/kg/injection, schedule: Q01DX009 (ip), vehicle: water 103 % of control | dose: 50.0 mg/kg/injection, schedule: Q01DX009 (ip), vehicle: water 103 % of control | dose: 100.0 mg/kg/injection, schedule: Q01DX009 (ip), vehicle: water 98 % of control | dose: 200.0 mg/kg/injection, schedule: Q01DX009 (ip), vehicle: water 88 % of control

COc1ccc2c(c1)CCC1C2CCC2(C)C(=O)OC(=O)C12 (stereo not given)
inactive: dose: 100.0 mg/kg/injection, schedule: Q04DX003 (sc), vehicle: steriod suspending solution 101 % of control | dose: 200.0 mg/kg/injection, schedule: Q04DX003 (sc), vehicle: steriod suspending solution 95 % of control | dose: 400.0 mg/kg/injection, schedule: Q04DX003 (sc), vehicle: steriod suspending solution 98 % of control

CCOP(=S)(N=C=S)OCC
inactive: [4] 98 % of control | dose: 50.0 mg/kg/injection, schedule: Q04DX002 (ip), vehicle: saline with Tween-80 90 % of control

CCC(CCC(C)C1CCC2C3CC=C4CC(OC(=O)CCC(=O)O)CCC4(C)C3CCC12C)C(C)C (stereo not given)
inactive: [8] 90 % of control | [9] 90 % of control | [10] 93 % of control

C(=N\Nc1nc2ccccc2s1)/c1ccc2ccccc2n1
inactive: [11] 95 % of control | [12] 94 % of control | dose: 400.0 mg/kg/injection, schedule: Q04DX003 (ip), vehicle: Klucel (hydroxypropylcellulose) (HPC) 94 % of control

CC(C)=CC1CC(C)C2(CCC3(C)CC4C(C(=O)CC4(C)O)/C(C=O)=C\CC32)O1 (stereo not given)
inactive: dose: 2.5 mg/kg/injection, schedule: Q01DX009 (ip), vehicle: saline with Tween-80 97 % of control | dose: 5.0 mg/kg/injection, schedule: Q01DX009 (ip), vehicle: saline with Tween-80 94 % of control | dose: 10.0 mg/kg/injection, schedule: Q01DX009 (ip), vehicle: saline with Tween-80 97 % of control

O=P(OCCCCl)(OCCCCl)C(Cl)Cl
inactive: [1] 102 % of control | [2] 102 % of control | [3] 103 % of control
